By IC50 is commonly meant the concentration at which inhibition is half-maximal. By DC50 is commonly meant the midpoint of the concentration-degradation curve.

Consider 23 compounds from patent publication US20240059704A1, “Cereblon Ligands and Uses Thereof” (REGENTS OF THE UNIVERSITY OF MICHIGAN, priority 2022, published 2024).

Structures are written as SMILES. Where a name gives a salt, the structure may show the parent alone.

For test [1], the target named is wild-type human CRBN protein (Homo sapiens (Human), UniProt Q96SW2). The experiment in a line: Cereblon Binding Assay (Cisbio Cereblon Binding Kit, TR-FRET). The following applies: GST-tagged wild-type human CRBN, XL665-labelled Thalidomide. The method, then: The binding to cereblon (CRBN) was determined using the Cereblon Binding Kit (Cisbio, #64BDCRBNPEG) following the manufacturer's instruction. Briefly, serially diluted compounds were incubated with GST-tagged wild-type human CRBN protein, XL665-labelled Thalidomide and Europium Cryptate labelled GST antibody at room temperature for about 3 hours. Time Resolved Fluorescence Resonance Energy Transfer (TR-FRET) measurements were acquired on a CALRIOstar plate reader with MARS data analysis software (BMG Labtech), with the following settings: 665/10 nm and 620/10 nm emission, 60 […]. The TR-FRET ratio was taken as the 665/620 nm intensity ratio.
Chain of wild-type human CRBN protein (Q96SW2 whole entry): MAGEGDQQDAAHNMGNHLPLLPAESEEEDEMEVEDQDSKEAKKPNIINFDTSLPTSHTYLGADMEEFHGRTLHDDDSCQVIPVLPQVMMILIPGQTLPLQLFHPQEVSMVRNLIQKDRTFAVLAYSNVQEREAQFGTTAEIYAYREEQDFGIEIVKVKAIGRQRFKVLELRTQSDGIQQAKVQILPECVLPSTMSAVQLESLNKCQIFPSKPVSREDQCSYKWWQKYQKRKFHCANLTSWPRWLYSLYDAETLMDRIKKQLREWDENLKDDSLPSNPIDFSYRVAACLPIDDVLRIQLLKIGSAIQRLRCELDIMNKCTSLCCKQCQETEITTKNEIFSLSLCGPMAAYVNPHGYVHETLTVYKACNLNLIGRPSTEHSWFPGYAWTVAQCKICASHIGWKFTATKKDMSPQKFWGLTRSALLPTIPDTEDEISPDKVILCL
Background: TR-FRET usually uses a lanthanide donor and a delayed reading to cut background.

Test [2] has as its target ER (Homo sapiens (Human), UniProt P03372). The test can be described thus: In-cell western blot analysis (ICW), relative ER percentage in treated cells. The following applies: ER degradation, 16 hours. Format: cell-based. As for the experimental part:
In-cell western blot analysis. Cells are seeded in multi-well plates (e.g., at 40,000 or 10,000 cells/well). Diluted compounds at certain concentration are added (final 0.5% DMSO) and cells are incubated for certain period of time (e.g., 16 hours). Formaldehyde (e.g., PBS:FA=9:1) is added and followed by washing with PBS. The cells are blocked with Licor blocking buffer (Li-Cor). The relative ER percentage in treated cells were obtained by comparing the values of treated wells to those in untreated and DMSO-treated wells as 100%.
In-cell western blot analysis. a. seed cells in black-sided/clear bottom 96- or 384-well plates at 40,000 or 10,000 cells/well, overnight; b. add diluted compounds (final 0.5% DMSO), 16 hours. 16 h later, remove medium, add 100 μL or 25 μL of 3.7-4.0% formaldehyde (PBS:FA=9:1), RT 20 min, no shaking; c. wash with PBS, and permeabilized with 100 μL or 25 μL/well of 1×PBS+0.1% Triton X-100 10 minutes; d. block with 100 μL or 25 μL Licor blocking buffer (Li-Cor), RT 1h, moderate shaking; d. Add 100 μL or 25 μL of anti-ER (cs-8644, 1:500-1,000)+GAPDH (Millipore MAB374, 1:1000) in Block+0.05% Tween 20. RT 2h, gentle shaking. Negative control: cells plus secondary antibodies (no primary antibodies); e. wash×4 with PBS+0.05-0.1% Tween 20, gentel shaking; f. anti-rabbit-680 and anti-mouse-800 (both 1:1000 in LiCor block+0.05% Tween20, RT 1h, gentle shaking, no light. LI-COR: 0.2% to reduce background; g. wash×4 with PBS+0.05% Tween 20, gental shaking; h. add 100 μL or 25 μL of PBS to each well and read on CLX plate reader. The relative ER percentage in treated cells were obtained by comparing the values of treated wells to those in untreated and DMSO-treated wells as 100%.

Test [3] has as its system T47D cell line. The test can be described thus: Cell growth inhibition in T47D cell line. Type of test: cell-based. The following applies: Homo sapiens, μM, class key in nM. The method, then: Cell Growth Assay. The cells were seeded at certain concentration (e.g., at 1500/well) in multi-well plates overnight. Cells are subsequently treated with the compounds. A certain period of time (e.g., 4 days) after the compound treatment, 10% WST-8 reagent was added to the culture medium and incubate under certain condition (e.g., in a CO2 incubator at 37° C. for 2.5 hours). The absorbance is measured on each sample using a microplate reader at certain wavelength (e.g., 450 nm). The relative absorbance is calculated against the vehicle control from three individually repeats.

The target of test [4] is CRBN/DDB1 (Homo sapiens (Human), UniProt Q96SW2). The settings on record: HTRF, His tagged CRBN+DDB-DLS7+CXU4, Cy5-labeled Thalidomide probe; read-out: CRBN Binding IC50. As for the experimental part: The binding potency was determined using HTRF assay technology (Perkin Elmer). Compounds were serially diluted in DMSO and 0.2 μL volume was transferred to white 384-well plate.
Chain of CRBN/DDB1 (Q96SW2 whole entry): as above
Chain of CRBN/DDB1 (Q16531 whole entry partner): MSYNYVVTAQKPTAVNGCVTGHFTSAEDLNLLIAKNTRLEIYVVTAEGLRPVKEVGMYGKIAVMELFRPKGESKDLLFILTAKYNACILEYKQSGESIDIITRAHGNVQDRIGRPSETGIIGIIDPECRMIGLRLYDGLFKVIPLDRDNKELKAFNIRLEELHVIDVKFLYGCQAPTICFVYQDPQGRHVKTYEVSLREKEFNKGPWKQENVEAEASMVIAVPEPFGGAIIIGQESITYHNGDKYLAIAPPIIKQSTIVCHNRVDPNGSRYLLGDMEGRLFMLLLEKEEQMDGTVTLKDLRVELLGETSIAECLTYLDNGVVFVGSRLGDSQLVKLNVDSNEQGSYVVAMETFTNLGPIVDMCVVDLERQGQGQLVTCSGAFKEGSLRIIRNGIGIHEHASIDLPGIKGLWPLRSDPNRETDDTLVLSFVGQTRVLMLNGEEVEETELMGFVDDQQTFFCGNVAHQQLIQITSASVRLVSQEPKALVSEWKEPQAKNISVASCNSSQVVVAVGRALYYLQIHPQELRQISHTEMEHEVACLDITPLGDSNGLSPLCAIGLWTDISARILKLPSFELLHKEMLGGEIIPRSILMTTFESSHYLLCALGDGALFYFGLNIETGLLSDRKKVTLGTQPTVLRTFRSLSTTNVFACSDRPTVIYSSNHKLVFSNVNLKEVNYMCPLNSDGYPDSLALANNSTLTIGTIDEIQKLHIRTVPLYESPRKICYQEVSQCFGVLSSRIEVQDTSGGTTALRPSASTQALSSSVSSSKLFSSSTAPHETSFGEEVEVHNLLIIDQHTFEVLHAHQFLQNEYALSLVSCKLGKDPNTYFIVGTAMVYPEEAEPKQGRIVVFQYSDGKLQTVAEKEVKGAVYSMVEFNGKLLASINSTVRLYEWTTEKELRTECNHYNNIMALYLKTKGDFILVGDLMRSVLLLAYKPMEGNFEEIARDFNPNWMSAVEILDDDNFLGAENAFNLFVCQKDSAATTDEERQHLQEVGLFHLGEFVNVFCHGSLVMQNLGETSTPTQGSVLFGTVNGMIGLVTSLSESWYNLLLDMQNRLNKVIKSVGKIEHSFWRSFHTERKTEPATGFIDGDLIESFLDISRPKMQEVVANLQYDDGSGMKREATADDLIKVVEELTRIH

Chain of ER (P03372 whole entry): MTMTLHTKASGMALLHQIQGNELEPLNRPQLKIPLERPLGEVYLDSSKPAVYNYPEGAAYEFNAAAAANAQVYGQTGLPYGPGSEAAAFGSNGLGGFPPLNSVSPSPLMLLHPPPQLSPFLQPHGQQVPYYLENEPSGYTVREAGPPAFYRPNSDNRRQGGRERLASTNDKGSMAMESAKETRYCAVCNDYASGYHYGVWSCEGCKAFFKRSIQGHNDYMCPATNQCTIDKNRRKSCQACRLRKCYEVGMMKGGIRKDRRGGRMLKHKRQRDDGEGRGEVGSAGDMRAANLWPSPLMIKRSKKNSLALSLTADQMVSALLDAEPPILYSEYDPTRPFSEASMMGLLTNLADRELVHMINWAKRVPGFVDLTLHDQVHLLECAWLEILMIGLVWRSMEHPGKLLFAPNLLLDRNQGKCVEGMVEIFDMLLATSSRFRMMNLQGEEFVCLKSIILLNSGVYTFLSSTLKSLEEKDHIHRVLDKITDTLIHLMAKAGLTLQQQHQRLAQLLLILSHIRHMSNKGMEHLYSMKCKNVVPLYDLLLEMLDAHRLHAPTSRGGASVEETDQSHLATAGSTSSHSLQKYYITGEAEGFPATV

As for `O=C1CC[C@H](N2Cc3cc4c(c(F)c3C2=O)OCC2(CCNCC2)O4)C(=O)N1` [Compound B3, (S)-3-(5′-fluoro-6′-oxo-6′,8′-dihydro-3′H,7′H-spiro[piperidine-4,2′-[1,4]dioxino[2,3-f]isoindol]-7′-yl)piperidine-2,6-dione], the IC50 in test [1] is 1730 nM.

For `O=C1CCC(N2C(=O)c3cc4c(cc3C2=O)OC2(CO4)CN(CC3CC4(CCN(c5ccc([C@@H]6c7ccc(O)cc7CC[C@@H]6c6ccccc6)cc5)CC4)C3)C2)C(=O)N1` (stereo partly drawn) [THP-B385], the DC50 in test [2] was more than 100 nM. The same compound came in with a half-inhibitory concentration (IC50) in test [3] of 0.001 to 0.01 µM.

`O=C1CCC(N2Cc3c(ccc4c3OC3(CCNCC3)CC4)C2=O)C(=O)N1` (stereo not drawn) [Compound A2, 3-(7′-oxo-3′,4′,7′,9′-tetrahydro-8′H-spiro[piperidine-4,2′-pyrano[2,3-e]isoindol]-8′-yl)piperidine-2,6-dione]: the IC50 in test [4] was determined as 620 nM.

In the case of `O=C1CC[C@H](N2Cc3c(ccc4c3OCC3(CCN(CC5CC6(CCN(c7ccc([C@@H]8c9ccc(O)cc9CC[C@@H]8c8ccccc8)cc7)CC6)C5)CC3)O4)C2=O)C(=O)N1` [THP-B371], the DC50 in test [2] was less than 10 nM. Further, the IC50 in test [3] was less than 0.001 µM.

In the case of `O=C1CC[C@H](N2Cc3cc4c(cc3C2=O)OCC2(CN(CC3CC5(CCN(c6ccc([C@@H]7c8ccc(O)cc8CC[C@@H]7c7ccccc7)cc6)CC5)C3)C2)O4)C(=O)N1` [THP-B394, (S)-3-(1-((7-(4-((1R,2S)-6-hydroxy-2-phenyl-1,2,3,4-tetrahydronaphthalen-1-yl)phenyl)-7-azaspiro[3.5]nonan-2-yl)methyl)-6′-oxo-6′,8′-dihydro-3′H,7′H-spiro[azetidine-3,2′-[1,4]dioxino[2,3-f]isoindol]-7′-yl)piperidine-2,6-dione], the half-maximal inhibitory concentration (IC50) in test [3] was in the range of 0.001 to 0.01 µM.

Take `O=C1CC[C@H](N2Cc3cc4c(c(F)c3C2=O)OCC2(CCN(CC3CC5(CCN(c6ccc([C@@H]7c8ccc(O)cc8CC[C@@H]7c7ccccc7)cc6)CC5)C3)CC2)O4)C(=O)N1` [THP-B384]: in test [2], the DC50 was more than 100 nM. This compound also registered an IC50 in test [3] of 0.001 to 0.01 µM.

Turning to `O=C1CCC(N2Cc3c(ccc4c3OC3(C=C4)CNC3)C2=O)C(=O)N1` (stereo not drawn) [Compound A3, 3-(7′-oxo-7′,9′-dihydro-8′H-spiro[azetidine-3,2′-pyrano[2,3-e]isoindol]-8′-yl)piperidine-2,6-dione hydrochloride], in test [4], the half-maximal inhibitory concentration (IC50) is 1300 nM.

`O=C1CCC(N2Cc3c(ccc4c3OCC3(CNC3)O4)C2=O)C(=O)N1` (stereo not drawn) [Compound B2, 3-(7′-oxo-7′,9′-dihydro-2′H,8′H-spiro[azetidine-3,3′-[1,4]dioxino[2,3-e]isoindol]-8′-yl)piperidine-2,6-dione] yielded an IC50 in test [1] of 259 nM.

Compound `O=C1CC[C@H](N2Cc3c(ccc4c3OCC3(CCN(CC5COC6(CCN(c7ccc([C@@H]8c9ccc(O)cc9CC[C@@H]8c8ccccc8)cc7)CC6)OC5)CC3)O4)C2=O)C(=O)N1` [THP-B374] yielded a DC50 in test [2] of less than 10 nM. The same compound showed an IC50 in test [3] of less than 0.001 µM.

Regarding `O=C1CC[C@H](N2Cc3cc4c(cc3C2=O)OCC2(CNC2)O4)C(=O)N1` [Compound B4, (S)-3-(6′-oxo-6′,8′-dihydro-3′H,7′H-spiro[azetidine-3,2′-[1,4]dioxino[2,3-f]isoindol]-7′-yl)piperidine-2,6-dione], the half-inhibitory concentration (IC50) in test [1] turned out to be 4330 nM.

As for `O=C1CC[C@H](N2Cc3c(ccc4c3OCC3(CCN(CC5CCC6(CCN(c7ccc([C@@H]8c9ccc(O)cc9CC[C@@H]8c8ccccc8)cc7)CC6)O5)CC3)O4)C2=O)C(=O)N1` (stereo partly drawn) [THP-B372], the half-maximal degradation concentration (DC50) in test [2] was 10 to 100 nM. In test [3], the half-inhibitory concentration (IC50) was 0.001 to 0.01 µM.

Take `O=C1CCC(N2Cc3c(ccc4c3OC3(C=C4)CCNCC3)C2=O)C(=O)N1` (stereo not drawn) [Compound A1, 3-(7′-oxo-7′,9′-dihydro-8′H-spiro[piperidine-4,2′-pyrano[2,3-e]isoindol]-8′-yl)piperidine-2,6-dione]: the concentration for half-maximal inhibition (IC50) in test [4] is 1100 nM.

Consider `O=C1CC[C@H](N2Cc3c(ccc4c3OCC3(CCN(CC5COC6(CCN(c7ccc([C@@H]8c9ccc(O)cc9CC[C@@H]8c8ccccc8)cc7)CC6)C5)CC3)O4)C2=O)C(=O)N1` (stereo partly drawn) [THP-B373], for which, in test [2], the 50% degradation concentration (DC50) was less than 10 nM. This compound also came in with a 50% inhibitory concentration (IC50) in test [3] of less than 0.001 µM.

On to `O=C1CCC(N2Cc3c(ccc4c3OCC3(CN(CC5CC6(CCN(c7ccc([C@@H]8c9ccc(O)cc9CC[C@@H]8c8ccccc8)cc7)CC6)C5)C3)O4)C2=O)C(=O)N1` (stereo partly drawn) [THP-B368], for which, in test [2], the half-maximal degradation concentration (DC50) is more than 100 nM. In test [3], the IC50 is 0.001 to 0.01 µM.

In test [2], `O=C1CCC(N2Cc3c(ccc4c3OCC3(CN(CC5CCC6(CC5)CN(c5ccc([C@@H]7c8ccc(O)cc8CC[C@@H]7c7ccccc7)cc5)C6)C3)O4)C2=O)C(=O)N1` (stereo partly drawn) [THP-B376] showed a DC50 of 10 to 100 nM. In test [3], this compound displayed a half-inhibitory concentration (IC50) of less than 0.001 µM.

As for `O=C1CC[C@H](N2Cc3cc4c(c(F)c3C2=O)OCC2(CCN(CC3CCN(c5ccc([C@@H]6c7ccc(O)cc7CC[C@@H]6c6ccccc6)cc5)CC3)CC2)O4)C(=O)N1` [THP-B383, (S)-3-(5′-fluoro-1-((1-(4-((1R,2S)-6-hydroxy-2-phenyl-1,2,3,4-tetrahydronaphthalen-1-yl)phenyl)piperidin-4-yl)methyl)-6′-oxo-6′,8′-dihydro-3′H,7′H-spiro[piperidine-4,2′-[1,4]dioxino[2,3-f]isoindol]-7′-yl)piperidine-2,6-dione], in test [2], the DC50 is more than 100 nM. In test [3], this compound gave an IC50 of more than 0.01 µM.

In turn, `O=C1CCC(N2C(=O)c3cc4c(cc3C2=O)OC2(CNC2)CO4)C(=O)N1` (stereo not drawn) [Compound B5, 7′-(2,6-dioxopiperidin-3-yl)-7′-hydro-3′H,6′H-spiro[azetidine-3,2′-[1,4]dioxino[2,3-f]isoindole]-6′,8′-dione] came in with a half-maximal inhibitory concentration (IC50) in test [1] of 4630 nM.

`O=C1CCC(N2Cc3c(ccc4c3OCC3(CN(CC5COC6(CCN(c7ccc([C@@H]8c9ccc(O)cc9CC[C@@H]8c8ccccc8)cc7)CC6)OC5)C3)O4)C2=O)C(=O)N1` (stereo partly drawn) [THP-B377] displayed a half-maximal degradation concentration (DC50) in test [2] of 10 to 100 nM. In test [3], the IC50 was less than 0.001 µM.

The compound `O=C1CCC(N2Cc3c(ccc4c3OCC3(CN(CC5CCN(c6ccc([C@@H]7c8ccc(O)cc8CC[C@@H]7c7ccccc7)cc6)CC5)C3)O4)C2=O)C(=O)N1` (stereo partly drawn) [THP-B367] had a half-maximal degradation concentration (DC50) in test [2] of more than 100 nM. Further, in test [3], the IC50 was in the range of 0.001 to 0.01 µM.

`O=C1CCC(N2Cc3c(ccc4c3OCC3(CN(CC5CCC6(CCN(c7ccc([C@@H]8c9ccc(O)cc9CC[C@@H]8c8ccccc8)cc7)CC6)OC5)C3)O4)C2=O)C(=O)N1` (stereo partly drawn) [THP-B386] showed a DC50 in test [2] of more than 100 nM. Also, the IC50 in test [3] lay in the range of 0.001 to 0.01 µM.

Take `O=C1CCC(N2Cc3c(ccc4c3OC3(CC4)CNC3)C2=O)C(=O)N1` (stereo not drawn) [Compound A4, 3-(7′-oxo-3′,4′,7′,9′-tetrahydro-8′H-spiro[azetidine-3,2′-pyrano[2,3-e]isoindol]-8′-yl)piperidine-2,6-dione hydrochloride]: the half-maximal inhibitory concentration (IC50) in test [4] stood at 5200 nM.

In the case of `O=C1CC[C@H](N2Cc3c(ccc4c3OCC3(CCNCC3)O4)C2=O)C(=O)N1` [Compound B1, (S)-3-(7′-oxo-7′,9′-dihydro-2′H,8′H-spiro[piperidine-4,3′-[1,4]dioxino[2,3-e]isoindol]-8′-yl)piperidine-2,6-dione], the IC50 in test [1] worked out at 330 nM.

Compound `O=C1CC[C@H](N2Cc3c(ccc4c3OCC3(CCN(CC5CCN(c6ccc([C@@H]7c8ccc(O)cc8CC[C@@H]7c7ccccc7)cc6)CC5)CC3)O4)C2=O)C(=O)N1` [THP-B369] came in with a DC50 in test [2] of 10 to 100 nM. The compound further came in with a half-inhibitory concentration (IC50) in test [3] of less than 0.001 µM.
